From ChEMBL document CHEMBL5329194, “Design, Synthesis, and Evaluation of 18F-Labeling CYP1B1 PET Tracer Based on 2-Phenylquinazolin” (Bioorg Med Chem Lett, 2023)

Tests used:
[1] = Drug accumulation in small intestine of KM mouse measured after 2 hrs; assay type: ADME, tissue-based; conditions: read-out: Drug uptake
[2] = Drug accumulation in blood of KM mouse measured after 2 hrs; assay type: ADME, tissue-based; conditions: read-out: Drug uptake
[3] = Drug accumulation in bone of KM mouse measured after 2 hrs; assay type: ADME, tissue-based, Bone element; conditions: read-out: Drug uptake
[4] = Drug accumulation in heart of KM mouse measured after 10 mins; assay type: ADME, tissue-based; conditions: in vivo
[5] = Drug accumulation in brain of KM mouse measured after 10 mins; assay type: ADME, tissue-based; conditions: read-out: Drug uptake
[6] = Drug accumulation in intestine of KM mouse measured after 30 mins; assay type: ADME, tissue-based; conditions: read-out: Drug uptake
[7] = Drug accumulation in liver of KM mouse measured after 10 mins; assay type: ADME, tissue-based; conditions: read-out: Drug uptake
[8] = Drug distribution in KM mouse liver xenografted with human HCT-116 cells measured after 1 hr; assay type: ADME, tissue-based; conditions: read-out: Drug uptake
[9] = Stability of compound in PBS assessed as compound remaining measure after 1 to 2 hrs; assay type: physicochemical; conditions: buffer; time 1-2 hrs
[10] = Stability of compound in mouse plasma assessed as compound remaining measured after 1 to 2 hrs; assay type: ADME, cell-free; conditions: time 1-2 hrs
[11] = Retention time of the compound; assay type: physicochemical
[12] = Drug uptake in mouse liver measured after 60 min; assay type: ADME, tissue-based; conditions: in vivo, 1 h
[13] = Drug uptake in mouse liver measured after 10 mins; assay type: ADME, tissue-based; conditions: in vivo
[14] = Lipophilicity, logP of compound; assay type: physicochemical; conditions: octanol/water
[15] = Drug uptake in human HCT-116 cells measured after 30 mins; assay type: ADME, cell-based; conditions: hct-116, 0.5 h
[16] = Drug uptake in human MCF7 cells measured after 1 hr; assay type: ADME, cell-based; conditions: mcf7, 1 h
[17] = Drug uptake in human HCT-15 cells measured after 1 hr; assay type: ADME, cell-based; conditions: hct-15, 1 h
[18] = Drug uptake in human HCT-116 cells at 10 nM measured after 30 min; assay type: ADME, cell-based; conditions: hct-116, 0.5 h, 0.01 µM
[19] = Drug uptake in human MCF7 cells measured after 30 mins in presence of 2-(4-bromophenyl)-4-(2-(2-(2-fluoroethoxy)ethoxy)ethoxy)quinazoline; assay type: ADME, cell-based; conditions: mcf7, 0.5 h
[20] = Drug uptake in human HCT-15 cells measured after 30 mins in presence of 2-(4-bromophenyl)-4-(2-(2-(2-fluoroethoxy)ethoxy)ethoxy)quinazoline; assay type: ADME, cell-based; conditions: hct-15, 0.5 h
[21] = Drug distribution in KM mouse tumor xenografted with HCT-116 cells measured after 1 hr; assay type: ADME, tissue-based, Neoplasm; conditions: read-out: Drug uptake
[22] = Drug distribution in KM mouse tumor xenografted with human HCT-116 cells measured after 1 hr block group; assay type: ADME, tissue-based, Neoplasm; conditions: read-out: Drug uptake
[23] = Drug distribution in KM mouse blood xenografted with human HCT-116 cells measured after 1 hr; assay type: ADME, tissue-based; conditions: read-out: Drug uptake
[24] = Drug distribution in KM mouse blood xenografted with human HCT-116 cells measured after 1 hr block group; assay type: ADME, tissue-based; conditions: read-out: Drug uptake
[25] = Drug distribution in KM mouse brain xenografted with human HCT-116 cells measured after 1 hr; assay type: ADME, tissue-based; conditions: read-out: Drug uptake
[26] = Drug distribution in KM mouse brain xenografted with human HCT-116 cells measured after 1 hr block group; assay type: ADME, tissue-based; conditions: read-out: Drug uptake
[27] = Drug distribution in KM mouse heart xenografted with human HCT-116 cells measured after 1 hr; assay type: ADME, tissue-based; conditions: read-out: Drug uptake
[28] = Drug distribution in KM mouse heart xenografted with human HCT-116 cells measured after 1 hr block group; assay type: ADME, tissue-based; conditions: read-out: Drug uptake
[29] = Drug distribution in KM mouse liver xenografted with human HCT-116 cells measured after 1 hr block group; assay type: ADME, tissue-based; conditions: read-out: Drug uptake
[30] = Drug distribution in KM mouse spleen xenografted with human HCT-116 cells measured after 1 hr; assay type: ADME, tissue-based; conditions: read-out: Drug uptake
[31] = Drug distribution in KM mouse spleen xenografted with human HCT-116 cells measured after 1 hr block group; assay type: ADME, tissue-based; conditions: read-out: Drug uptake
[32] = Drug distribution in KM mouse lung xenografted with human HCT-116 cells measured after 1 hr; assay type: ADME, tissue-based; conditions: read-out: Drug uptake
[33] = Drug distribution in KM mouse lung xenografted with human HCT-116 cells measured after 1 hr block group; assay type: ADME, tissue-based; conditions: read-out: Drug uptake
[34] = Drug distribution in KM mouse kidney xenografted with human HCT-116 cells measured after 1 hr; assay type: ADME, tissue-based; conditions: read-out: Drug uptake
[35] = Drug distribution in KM mouse kidney xenografted with human HCT-116 cells measured after 1 hr block group; assay type: ADME, tissue-based; conditions: read-out: Drug uptake
[36] = Drug distribution in KM mouse pancreas xenografted with human HCT-116 cells measured after 1 hr; assay type: ADME, tissue-based; conditions: read-out: Drug uptake
[37] = Drug distribution in KM mouse pancreas xenografted with human HCT-116 cells measured after 1 hr block group; assay type: ADME, tissue-based; conditions: read-out: Drug uptake
[38] = Drug distribution in KM mouse muscle xenografted with human HCT-116 cells measured after 1 hr; assay type: ADME, tissue-based, Muscle tissue; conditions: read-out: Drug uptake
[39] = Drug distribution in KM mouse muscle xenografted with human HCT-116 cells measured after 1 hr block group; assay type: ADME, tissue-based, Muscle tissue; conditions: read-out: Drug uptake
[40] = Drug distribution in KM mouse bone xenografted with human HCT-116 cells measured after 1 hr; assay type: ADME, tissue-based, Bone element; conditions: read-out: Drug uptake
[41] = Drug distribution in KM mouse bone xenografted with human HCT-116 cells measured after 1 hr block group; assay type: ADME, tissue-based, Bone element; conditions: read-out: Drug uptake
[42] = Drug distribution in KM mouse stomach xenografted with human HCT-116 cells measured after 1 hr; assay type: ADME, tissue-based; conditions: read-out: Drug uptake
[43] = Drug distribution in KM mouse stomach xenografted with human HCT-116 cells measured after 1 hr block group; assay type: ADME, tissue-based; conditions: read-out: Drug uptake
[44] = Drug distribution in KM mouse intestine xenografted with human HCT-116 cells measured after 1 hr; assay type: ADME, tissue-based; conditions: read-out: Drug uptake
[45] = Drug distribution in KM mouse intestine xenografted with human HCT-116 cells measured after 1 hrs block group; assay type: ADME, tissue-based; conditions: read-out: Drug uptake
[46] = Ratio of drug level in tumor to muscle in KM mouse xenografted with human HCT-116 cells measured after 1 hr; assay type: ADME, tissue-based
[47] = Ratio of drug level in tumor to muscle in KM mouse xenografted with human HCT-116 cells measured after 1 hr block group; assay type: ADME, tissue-based
[48] = Ratio of drug level in tumor to blood in KM mouse xenografted with human HCT-116 cells measured after 1 hr; assay type: ADME, tissue-based
[49] = Ratio of drug level in tumor to blood in KM mouse xenografted with human HCT-116 cells measured after 1 hr block group; assay type: ADME, tissue-based
[50] = Drug uptake in KM mouse liver xenografted with human HCT-116 cells measured after 40 to 60 mins by PET imaging based analysis; assay type: ADME, tissue-based; conditions: time 40-60 min
[51] = Drug uptake in KM mouse gastrointestinal tract xenografted with human HCT-116 cells measured after 40 to 60 mins by PET imaging based analysis; assay type: ADME, tissue-based; conditions: time 40-60 min
[52] = Drug uptake in KM mouse intestine xenografted with human HCT-116 cells measured after 80 mins by PET imaging based analysis; assay type: ADME, tissue-based; conditions: 1.333 h

## [18F]CCOCCOCCOc1nc(-c2ccc(Br)cc2)nc2ccccc12
[1]
  tissue uptake at 2 h: 8.37 %ID/g
[2]
  tissue uptake at 2 h: 3.97 %ID/g
[3]
  tissue uptake at 2 h: 5.62 %ID/g
[4]
  Drug uptake: Active
[5]
  tissue uptake at 10 min: 7.94 %ID/g
[6]
  tissue uptake at 0.5 h: 10.8 %ID/g
[7]
  tissue uptake at 10 min: 10.2 %ID/g
[8]
  tissue uptake at 1 h: 9.99 %ID/g
[9]
  Stability: > 90%
[10]
  Stability: > 90%
[11]
  Retention_time: 2.97 min
[12]
  Drug uptake: 37.63%
[13]
  Drug uptake: 83.7%
[14]
  logP: 3.88
[15]
  Drug uptake: 35.27%
[16]
  Drug uptake: 25.26%
[17]
  Drug uptake: 25.61%
[18]
  Drug uptake: 23.64%
[19]
  Drug uptake: 13.62%
[20]
  Drug uptake: 18.35%
[21]
  tissue uptake at 1 h: 4.76 %ID/g
[22]
  tissue uptake at 1 h: 3.31 %ID/g
[23]
  tissue uptake at 1 h: 4.15 %ID/g
[24]
  tissue uptake at 1 h: 3.3 %ID/g
[25]
  tissue uptake at 1 h: 7.34 %ID/g
[26]
  tissue uptake at 1 h: 6.56 %ID/g
[27]
  tissue uptake at 1 h: 6.4 %ID/g
[28]
  tissue uptake at 1 h: 5.23 %ID/g
[29]
  tissue uptake at 1 h: 9.5 %ID/g
[30]
  tissue uptake at 1 h: 6.45 %ID/g
[31]
  tissue uptake at 1 h: 5.62 %ID/g
[32]
  tissue uptake at 1 h: 5.66 %ID/g
[33]
  tissue uptake at 1 h: 5.42 %ID/g
[34]
  tissue uptake at 1 h: 8.49 %ID/g
[35]
  tissue uptake at 1 h: 7.65 %ID/g
[36]
  tissue uptake at 1 h: 8.21 %ID/g
[37]
  tissue uptake at 1 h: 7.53 %ID/g
[38]
  tissue uptake at 1 h: 4.92 %ID/g
[39]
  tissue uptake at 1 h: 4.2 %ID/g
[40]
  tissue uptake at 1 h: 2.81 %ID/g
[41]
  tissue uptake at 1 h: 2.44 %ID/g
[42]
  tissue uptake at 1 h: 1.75 %ID/g
[43]
  tissue uptake at 1 h: 1.6 %ID/g
[44]
  tissue uptake at 1 h: 8.84 %ID/g
[45]
  tissue uptake at 1 h: 7.1 %ID/g
[46]
  Ratio: 0.98
[47]
  Ratio: 0.79
[48]
  Kp at 1 h: 1.16
[49]
  Kp at 1 h: 1.01
[50]
  Drug uptake: Active
[51]
  Drug uptake: Active
[52]
  Drug uptake: Active
